Measurements published in patent US12673959B2, “Polysubstituted imidazolo[4,5-c][1,2]thiazine derivative and use thereof” (KYUNGPOOK NATIONAL UNIVERSITY INDUSTRY-ACADEMIC COOPERATION …, priority 2020, dated 2026).

Tested on: CLP-induced sepsis mouse model
Assay: Survival rate in cecal ligation and puncture (CLP)-induced sepsis mouse model
Format: in vivo
Settings: ICR male mice; compound administered intravenously into tail 12 hours and 50 hours after surgery; FIG. 1
Method: The anti-inflammatory efficacy of the prepared compound was tested by the survival rate of peritonitis-induced sepsis mouse model. CLP-induced sepsis mouse models were prepared by in vivo methods to verify anti-inflammatory activity, and the preparation method is a widely used experimental method [Wang H, Nat. Med., 2004, 10, 1216-1221]. Forty 6-week-old ICR male mice were divided into 10 mice in each group and the survival rate was observed.
First, the male mice were given respiratory anesthesia using isoflurane, an incision of about 2 cm was made in the middle of the abdomen to take out the appendix adjacent to the intestine, a 5.0. mm portion from the tip of the appendix was ligated with a 3.0-silk suture and pierced once with a 22-gauge needle, and then the incision was closed again with a 4.0-silk suture. Sham mice were sutured without tying or piercing the appendix after incision, and the compound prepared 12 hours and 50 hours after surgery was administered intravenously into mouse tail.

CCN1c2nc(N3CCCC3)n(C)c2C(=O)C(c2ccc(Cl)cc2)S1(=O)=O (stereo not shown) [Compound 1-42, 3-(4-chlorophenyl)-1-ethyl-5-methyl-6-(pyrrolidin-1-yl)-3,5-dihydroimidazo[4,5-c][1,2]thiazine-4(1H)-one 2,2-dioxide]
survival rate of the CLP-induced sepsis mouse model increased compared to a group of which only CLP was performed: 60%
